# Test results published in paper PMC6222819, “Assessment of Binding Interaction between Bovine Lactoferrin and Tetracycline Hydrochloride: Multi-Spectroscopic Analyses and Molecular Modeling” (Molecules : A Journal of Synthetic Chemistry and Natural …, 2018).
# pKd: −log10 of the molar value. Where a name gives a salt, the structure may show the parent alone.
# Biological target: T1, bovine lactoferrin (bLf) (Bos taurus, UniProt P24627)
# T1 construct: gene LTF; 80 kDa; single polypeptide chain
# T1 sequence (P24627 20-708): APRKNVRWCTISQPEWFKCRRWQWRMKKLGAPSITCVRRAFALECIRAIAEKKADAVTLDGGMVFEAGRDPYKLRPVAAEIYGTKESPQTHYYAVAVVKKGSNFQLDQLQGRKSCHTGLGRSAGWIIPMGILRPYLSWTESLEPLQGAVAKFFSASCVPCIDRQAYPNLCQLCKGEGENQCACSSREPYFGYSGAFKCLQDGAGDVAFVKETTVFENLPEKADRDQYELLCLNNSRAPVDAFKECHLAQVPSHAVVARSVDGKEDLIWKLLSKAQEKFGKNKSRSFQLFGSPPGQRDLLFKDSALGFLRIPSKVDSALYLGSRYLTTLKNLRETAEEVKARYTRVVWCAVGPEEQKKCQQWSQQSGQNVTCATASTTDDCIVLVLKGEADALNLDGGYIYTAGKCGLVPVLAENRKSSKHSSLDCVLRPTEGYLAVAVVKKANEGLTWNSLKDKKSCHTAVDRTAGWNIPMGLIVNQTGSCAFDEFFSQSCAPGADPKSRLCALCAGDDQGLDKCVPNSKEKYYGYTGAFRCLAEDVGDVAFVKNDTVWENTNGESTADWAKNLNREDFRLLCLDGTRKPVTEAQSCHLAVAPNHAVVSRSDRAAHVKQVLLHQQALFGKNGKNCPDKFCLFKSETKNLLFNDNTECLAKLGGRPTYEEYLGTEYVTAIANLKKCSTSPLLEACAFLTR
# Assay: microscale thermophoresis
# Type: binding
smiles,measurement,value
CN(C)[C@@H]1C(O)=C(C(N)=O)C(=O)[C@@]2(O)C(O)=C3C(=O)c4c(O)cccc4[C@@](C)(O)[C@H]3C[C@@H]12 [Tetracycline hydrochloride],pKd,4.45
